Source: ChEMBL document CHEMBL1201862, “PubChem BioAssay data set” (2004)
The source made the active and inactive calls.

Tests used:
[1] = inhibitors of intracellular T. cruzi replication, confirmation, NIH3T3 host cells, beta-gal luminescence (AID 2044); type: functional, cell-based;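 also: intracellular parasites grown in NIH/3T3 mouse fibroblasts as host cells; luminescent beta-galactosidase reporter signal from transgenic T. cruzi replicating inside host cells; inhibitors lower the luminescence signal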
[2] = cytotoxicity toward NIH3T3 fibroblasts, dose response, counter-screen, cell-based, ATP luminescence, mouse fibroblasts (AID 2010); type: functional;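 also: cells exposed to compound for about 90 hours before reading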
[3] = molecular target: T1, Calpain-2 catalytic subunit (Sus scrofa, UniProt P43367); assay: pig calpain II inhibitor potency, dose response, biochemical, fluorogenic peptide substrate (AID 1420); type: functional
T1 sequence (P43367 whole entry): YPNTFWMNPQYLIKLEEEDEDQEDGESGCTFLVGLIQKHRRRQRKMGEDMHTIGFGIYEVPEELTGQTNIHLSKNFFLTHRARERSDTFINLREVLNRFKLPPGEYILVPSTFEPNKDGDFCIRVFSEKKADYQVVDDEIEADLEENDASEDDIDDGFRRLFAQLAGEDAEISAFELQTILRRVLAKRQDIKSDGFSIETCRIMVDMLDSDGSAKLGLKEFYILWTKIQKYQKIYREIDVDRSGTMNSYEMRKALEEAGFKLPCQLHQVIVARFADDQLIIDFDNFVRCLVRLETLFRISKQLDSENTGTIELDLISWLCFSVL

Caspase-6 = molecular target: T2, Caspase-6 (Homo sapiens, UniProt P55212); assay: human caspase-6 inhibitors, dose response, biochemical, VEID-R110 fluorescence, cherry-pick (AID 720632)
T2 sequence (P55212 whole entry): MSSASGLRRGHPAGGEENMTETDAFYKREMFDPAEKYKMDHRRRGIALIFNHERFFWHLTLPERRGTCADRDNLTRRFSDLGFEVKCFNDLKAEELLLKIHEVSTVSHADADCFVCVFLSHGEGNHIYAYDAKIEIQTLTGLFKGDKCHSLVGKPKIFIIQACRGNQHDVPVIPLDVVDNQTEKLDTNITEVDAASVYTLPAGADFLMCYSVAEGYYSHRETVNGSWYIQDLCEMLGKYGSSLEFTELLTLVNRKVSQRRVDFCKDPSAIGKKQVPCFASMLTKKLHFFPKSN

[4] = molecular target: T3, High affinity choline transporter 1 (Homo sapiens, UniProt Q9GZV3); assay: CHT inhibitors, dose response, cell-based, 5-point CRC, membrane potential dye (AID 504840); type: functional
T3 sequence (Q9GZV3 whole entry): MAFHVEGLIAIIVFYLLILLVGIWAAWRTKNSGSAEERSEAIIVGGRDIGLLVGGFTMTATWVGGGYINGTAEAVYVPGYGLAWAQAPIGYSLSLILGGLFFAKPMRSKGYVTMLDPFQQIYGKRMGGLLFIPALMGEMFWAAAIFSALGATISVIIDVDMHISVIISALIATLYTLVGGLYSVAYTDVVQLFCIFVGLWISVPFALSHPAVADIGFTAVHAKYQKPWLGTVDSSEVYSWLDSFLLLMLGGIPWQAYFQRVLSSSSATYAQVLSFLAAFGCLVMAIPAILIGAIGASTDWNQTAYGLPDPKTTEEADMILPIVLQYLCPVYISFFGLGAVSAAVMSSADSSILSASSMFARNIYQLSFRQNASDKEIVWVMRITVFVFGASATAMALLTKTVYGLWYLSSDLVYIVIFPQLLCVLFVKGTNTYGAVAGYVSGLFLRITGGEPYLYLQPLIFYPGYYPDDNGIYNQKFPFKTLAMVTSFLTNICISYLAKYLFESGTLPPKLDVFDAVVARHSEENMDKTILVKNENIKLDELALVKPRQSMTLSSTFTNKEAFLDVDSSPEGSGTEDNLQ

Albumin = Albumin (Bos taurus, UniProt P02769); assay: Counterscreen for inhibitors of T-cell receptor (TCR)-CD3 interaction: Fluorescence-based biochemical high throughput dose response assay to identify inhibitors of T-cell receptor (TCR)-CD3 interaction using a TAMRA-labeled BSA probe.; type: functional
Sequence of Albumin (P02769 whole entry): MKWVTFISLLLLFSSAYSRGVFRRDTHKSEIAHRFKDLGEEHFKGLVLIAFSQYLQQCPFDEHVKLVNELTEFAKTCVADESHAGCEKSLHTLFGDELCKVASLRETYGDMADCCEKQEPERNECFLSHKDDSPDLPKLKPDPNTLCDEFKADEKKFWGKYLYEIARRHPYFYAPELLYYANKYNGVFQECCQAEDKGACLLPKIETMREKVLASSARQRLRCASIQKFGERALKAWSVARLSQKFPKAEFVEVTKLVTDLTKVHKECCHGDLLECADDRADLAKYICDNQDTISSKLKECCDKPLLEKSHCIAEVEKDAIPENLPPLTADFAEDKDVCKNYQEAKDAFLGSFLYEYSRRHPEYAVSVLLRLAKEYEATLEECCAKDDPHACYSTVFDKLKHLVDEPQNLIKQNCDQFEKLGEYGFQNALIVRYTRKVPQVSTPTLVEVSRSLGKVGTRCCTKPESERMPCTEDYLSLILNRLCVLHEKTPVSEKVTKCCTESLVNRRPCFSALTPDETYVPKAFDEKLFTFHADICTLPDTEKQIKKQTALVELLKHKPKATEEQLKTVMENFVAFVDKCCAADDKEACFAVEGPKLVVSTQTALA

Prothrombin = Prothrombin (Homo sapiens, UniProt P00734); assay: Thrombin 1536 HTS Dose Response Confirmation. [Related pubchem assays: 1046 (Thrombin 1536 HTS; hits were confirmed in this assay)]; type: functional
[5] = M. tuberculosis H37Rv growth inhibitors, H37Rv strain (AID 1626); type: functional
[6] = molecular target: T4, Carboxy-terminal domain RNA polymerase II polypeptide A small phosphatase 1 (Homo sapiens, UniProt Q9GZU7); assay: inhibitors of CTDSP1, concentration-response testing, biochemical assay, absorbance-based, actives from ultra-high-throughput screening (AID 540297); type: functional
T4 sequence (Q9GZU7 whole entry): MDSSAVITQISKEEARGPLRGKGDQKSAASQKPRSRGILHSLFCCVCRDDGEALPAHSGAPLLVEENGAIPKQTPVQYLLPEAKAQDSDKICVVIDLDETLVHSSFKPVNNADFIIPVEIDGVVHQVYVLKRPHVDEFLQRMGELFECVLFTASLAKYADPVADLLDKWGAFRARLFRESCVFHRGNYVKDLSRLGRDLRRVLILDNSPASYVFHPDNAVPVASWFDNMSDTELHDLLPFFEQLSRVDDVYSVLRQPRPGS

Estrogen receptor = molecular target: T5, Estrogen receptor (Homo sapiens, UniProt P03372);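 also: potency for inhibiting coactivator peptide recruitment to the receptor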
T5 sequence (P03372 whole entry): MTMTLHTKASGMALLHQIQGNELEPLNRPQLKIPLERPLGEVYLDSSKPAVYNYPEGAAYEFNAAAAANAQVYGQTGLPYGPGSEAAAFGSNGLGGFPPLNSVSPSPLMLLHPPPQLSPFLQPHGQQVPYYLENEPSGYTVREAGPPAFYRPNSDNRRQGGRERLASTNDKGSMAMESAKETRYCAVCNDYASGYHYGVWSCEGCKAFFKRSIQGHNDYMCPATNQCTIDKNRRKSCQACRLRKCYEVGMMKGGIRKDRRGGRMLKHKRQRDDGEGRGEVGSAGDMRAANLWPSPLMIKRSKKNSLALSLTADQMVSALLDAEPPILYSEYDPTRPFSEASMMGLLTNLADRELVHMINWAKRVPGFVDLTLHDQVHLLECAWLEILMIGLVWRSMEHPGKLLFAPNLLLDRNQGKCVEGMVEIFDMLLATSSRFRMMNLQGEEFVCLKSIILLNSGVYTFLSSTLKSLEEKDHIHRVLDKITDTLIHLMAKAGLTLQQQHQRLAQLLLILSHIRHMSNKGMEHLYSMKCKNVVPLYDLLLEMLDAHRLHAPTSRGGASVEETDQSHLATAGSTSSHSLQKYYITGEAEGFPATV

Protein RecA = molecular target: T6, Protein RecA (Mycobacterium tuberculosis, UniProt P9WHJ3); assay: Fluorescence Cell-Free Homogeneous Dose Retest to Identify Inhibitors of RecA-Intein Splicing Activity. [Related pubchem assays (depositor defined):AID2097, AID2223, AID489010, AID492950]; type: functional
T6 sequence (P9WHJ3 whole entry): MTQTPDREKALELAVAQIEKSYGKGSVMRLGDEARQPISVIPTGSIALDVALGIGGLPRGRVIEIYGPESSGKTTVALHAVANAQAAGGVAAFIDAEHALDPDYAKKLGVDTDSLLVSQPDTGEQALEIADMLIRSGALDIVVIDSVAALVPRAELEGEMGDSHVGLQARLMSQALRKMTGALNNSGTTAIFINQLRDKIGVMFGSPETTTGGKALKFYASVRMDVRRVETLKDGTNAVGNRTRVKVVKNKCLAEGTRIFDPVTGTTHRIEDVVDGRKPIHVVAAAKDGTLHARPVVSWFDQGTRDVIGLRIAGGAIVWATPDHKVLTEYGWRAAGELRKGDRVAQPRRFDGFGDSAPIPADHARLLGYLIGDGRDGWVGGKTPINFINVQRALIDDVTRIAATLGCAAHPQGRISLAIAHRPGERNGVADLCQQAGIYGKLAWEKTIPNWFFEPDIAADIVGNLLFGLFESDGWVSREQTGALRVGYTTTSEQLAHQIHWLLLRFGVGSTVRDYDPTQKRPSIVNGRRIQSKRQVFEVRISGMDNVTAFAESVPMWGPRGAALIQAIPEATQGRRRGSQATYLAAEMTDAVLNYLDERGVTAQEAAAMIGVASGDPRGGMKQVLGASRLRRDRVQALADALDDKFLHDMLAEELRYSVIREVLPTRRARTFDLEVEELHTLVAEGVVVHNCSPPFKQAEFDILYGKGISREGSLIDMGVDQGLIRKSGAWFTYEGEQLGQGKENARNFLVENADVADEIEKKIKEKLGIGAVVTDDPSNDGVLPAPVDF

Genome polyprotein = Genome polyprotein (dengue virus type 2, UniProt P29990); assay: Dengue-2 NS5 methyltransferase inhibitors, primary screen, biochemical, confirmation dose response (AID 588689); type: functional
Sequence of Genome polyprotein (P29990 2492-3391 limits assumed): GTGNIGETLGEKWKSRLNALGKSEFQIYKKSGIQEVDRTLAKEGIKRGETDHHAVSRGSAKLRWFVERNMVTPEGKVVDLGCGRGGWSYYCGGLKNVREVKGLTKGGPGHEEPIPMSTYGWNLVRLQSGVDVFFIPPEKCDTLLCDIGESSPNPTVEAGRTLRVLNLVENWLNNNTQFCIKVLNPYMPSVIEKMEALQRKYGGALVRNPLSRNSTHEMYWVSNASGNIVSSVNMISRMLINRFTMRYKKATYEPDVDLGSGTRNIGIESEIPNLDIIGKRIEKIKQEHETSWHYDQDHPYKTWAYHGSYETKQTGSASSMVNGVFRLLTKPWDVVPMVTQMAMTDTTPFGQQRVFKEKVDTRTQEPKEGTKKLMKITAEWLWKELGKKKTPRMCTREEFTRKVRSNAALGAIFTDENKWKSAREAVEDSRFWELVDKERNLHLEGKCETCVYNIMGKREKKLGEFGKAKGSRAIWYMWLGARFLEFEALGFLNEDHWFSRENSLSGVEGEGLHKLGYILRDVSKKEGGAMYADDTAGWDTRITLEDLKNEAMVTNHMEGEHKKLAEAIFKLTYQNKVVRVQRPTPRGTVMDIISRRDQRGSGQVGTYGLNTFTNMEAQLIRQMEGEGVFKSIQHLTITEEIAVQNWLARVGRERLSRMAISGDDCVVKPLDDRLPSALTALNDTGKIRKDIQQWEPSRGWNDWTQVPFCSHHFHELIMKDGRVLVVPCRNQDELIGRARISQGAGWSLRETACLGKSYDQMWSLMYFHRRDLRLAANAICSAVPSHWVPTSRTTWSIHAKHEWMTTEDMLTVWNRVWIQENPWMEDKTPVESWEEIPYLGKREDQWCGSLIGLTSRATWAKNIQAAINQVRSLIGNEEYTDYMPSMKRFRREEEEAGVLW

Large T antigen = Large T antigen (Simian virus 40, UniProt P03070); type: functional, Betapolyomavirus macacae;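 also: Confirmatory-stage PubChem screen for compounds that inhibit SV40 T antigen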
Sequence of Large T antigen (P03070 whole entry): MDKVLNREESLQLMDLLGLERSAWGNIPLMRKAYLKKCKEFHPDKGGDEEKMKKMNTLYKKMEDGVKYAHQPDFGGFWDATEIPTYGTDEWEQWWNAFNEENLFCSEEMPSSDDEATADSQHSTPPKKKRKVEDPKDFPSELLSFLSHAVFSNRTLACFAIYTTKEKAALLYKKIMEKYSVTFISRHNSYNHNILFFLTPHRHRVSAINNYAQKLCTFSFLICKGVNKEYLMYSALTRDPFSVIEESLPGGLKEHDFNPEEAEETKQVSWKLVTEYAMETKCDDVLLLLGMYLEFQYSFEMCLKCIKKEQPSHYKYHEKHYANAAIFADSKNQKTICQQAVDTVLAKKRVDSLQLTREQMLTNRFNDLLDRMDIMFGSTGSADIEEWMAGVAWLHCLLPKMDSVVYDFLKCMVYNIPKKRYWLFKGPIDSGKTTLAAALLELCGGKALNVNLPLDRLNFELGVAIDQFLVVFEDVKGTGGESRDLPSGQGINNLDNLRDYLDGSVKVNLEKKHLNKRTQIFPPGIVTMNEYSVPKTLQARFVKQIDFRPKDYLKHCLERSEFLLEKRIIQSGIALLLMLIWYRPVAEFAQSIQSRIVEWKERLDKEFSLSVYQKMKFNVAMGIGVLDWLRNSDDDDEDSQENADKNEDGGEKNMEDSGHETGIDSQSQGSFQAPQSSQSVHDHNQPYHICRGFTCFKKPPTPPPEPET

[7] = molecular target: T7, Replicative DNA helicase DnaB (Mycobacterium tuberculosis, UniProt P9WMR3); assay: DnaB intein splicing inhibitors, dose response, biochemical, cell-free fluorescence (AID 449749); type: functional
T7 sequence (P9WMR3 whole entry): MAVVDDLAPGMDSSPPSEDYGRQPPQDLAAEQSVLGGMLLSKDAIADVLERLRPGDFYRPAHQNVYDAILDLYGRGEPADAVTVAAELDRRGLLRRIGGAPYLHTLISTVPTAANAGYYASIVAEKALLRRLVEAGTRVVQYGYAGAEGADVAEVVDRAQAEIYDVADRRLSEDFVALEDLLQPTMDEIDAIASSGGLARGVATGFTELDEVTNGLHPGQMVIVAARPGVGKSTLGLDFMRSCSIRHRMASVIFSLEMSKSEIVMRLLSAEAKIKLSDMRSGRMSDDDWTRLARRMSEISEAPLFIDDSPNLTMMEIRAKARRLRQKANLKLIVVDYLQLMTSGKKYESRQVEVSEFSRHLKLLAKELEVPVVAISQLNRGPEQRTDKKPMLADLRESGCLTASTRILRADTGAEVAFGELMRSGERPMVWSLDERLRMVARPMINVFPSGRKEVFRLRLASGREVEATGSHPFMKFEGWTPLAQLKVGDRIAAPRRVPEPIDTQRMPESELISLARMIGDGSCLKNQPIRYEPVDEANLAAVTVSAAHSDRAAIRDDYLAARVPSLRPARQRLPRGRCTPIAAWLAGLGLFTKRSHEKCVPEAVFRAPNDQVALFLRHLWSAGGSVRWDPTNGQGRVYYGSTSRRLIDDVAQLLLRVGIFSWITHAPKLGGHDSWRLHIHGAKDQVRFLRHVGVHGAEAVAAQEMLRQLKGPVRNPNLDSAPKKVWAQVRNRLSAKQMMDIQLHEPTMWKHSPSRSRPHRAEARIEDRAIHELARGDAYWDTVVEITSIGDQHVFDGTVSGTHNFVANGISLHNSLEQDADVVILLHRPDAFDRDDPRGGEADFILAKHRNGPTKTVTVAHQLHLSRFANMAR

With `COc1ccc2sc(N(CCCN(C)C)C(=O)c3ccc(S(=O)(=O)N(C)C4CCCCC4)cc3)nc2c1` as the compound, how does the EC50 [1] read?
Its EC50 is < 0.1 µM (active).

And the EC50 [2]?
Its EC50 is > 60 µM (not active).

And the EC50 (cells)?
The EC50 was 0.393 µM (active).

For `CCc1ccc(S(=O)(=O)NCc2cn3c(C)csc3n2)s1`, which IC50 [3] is on record?
Its IC50 is 6.07 µM (not active).

For `COc1ccc(Cl)cc1N(CC(=O)N/N=C/c1ccc(OCC(N)=O)cc1)S(C)(=O)=O`, which AC50 (Caspase-6) is on record?
The AC50 was 9 µM (active).

For `COC(=O)Nc1ccc(S(=O)(=O)NNC(=O)c2c(O)c3ccccc3n(C)c2=O)cc1`, which IC50 [4] is on record?
The IC50 was 13.2 µM (active).

What about the IC50 (Albumin) of the same compound?
The IC50 was > 94.1 µM (inactive).

For `Cc1nc(-c2cnn(-c3ccccc3)c2)c2cc(C)oc2n1`, which IC50 (Prothrombin) is on record?
The IC50 was > 50 µM (not active).

With `O=C(O)c1ccc(Cl)c(S(=O)(=O)Nc2ccc3c[nH]nc3c2)c1` as the compound, how does the AC50 (Caspase-6) read?
The AC50 was 11.1 µM (active).

What does the source list for `CCOC(=O)c1sc2c(c1C)c(=O)n(Cc1ccccc1)c(=O)n2CCN(C)C`?
EC50 [1]: < 0.1 µM (active); EC50 [2]: > 60 µM (not active); EC50 (cells): 0.062 µM (active)

For `CCN(CC)c1ccc(CN(C)CCc2ccc(OC)c(OC)c2)cc1`, which EC50 [1] is on record?
Its EC50 is < 0.1 µM (active).

What about the EC50 [2] of the same compound?
Its EC50 is > 60 µM (not active).

What about the EC50 (cells) of the same compound?
Its EC50 is < 0.004 µM (active).

For `CCOc1ccc(NC2C=CS(=O)(=O)C2)cc1` (stereo unspecified), which IC50 [5] is on record?
The IC50 was > 100 µM (active).

For `Cc1cc(O)nc(SCC(=O)C23CC4CC(CC(C4)C2)C3)c1C#N`, which IC50 [5] is on record?
The IC50 was > 100 µM (active).

Which IC50 [5] does the source give for `COC(=O)Cc1ccc(NC(=O)c2ccc(Br)o2)cc1` here?
The IC50 was > 100 µM (active).

With `O=C(Nc1ccc2nn(-c3ccccc3)nc2c1)c1ccc(Br)o1` as the compound, how does the IC50 [6] read?
The IC50 was 3.62 µM (active).

What about the IC50 (Estrogen receptor) of the same compound?
The IC50 was > 50 µM (not active).

For `C=C(C)COc1ccc(-c2n[nH]cc2Oc2ccccc2OCC)c(O)c1`, which IC50 [3] is on record?
Its IC50 is 11.7 µM (not active).

With `Cc1c(Cl)cnc(NC(=O)COC(=O)CCC(=O)c2cccs2)c1Cl` as the compound, how does the IC50 (Prothrombin) read?
The IC50 was 2.77 µM (active).

With `CC(C)(C)c1csc(N/N=C/c2cccnc2)n1` as the compound, how does the IC50 [3] read?
Its IC50 is 18.6 µM (not active).

With `CC(C)(C)C1CCc2c(sc(NC(=O)CSc3nnc(-c4ccccc4)o3)c2C#N)C1` (stereo unspecified) as the compound, how does the IC50 [5] read?
The IC50 was > 100 µM (active).

Which IC50 [5] does the source give for `O=C(CN1C(=O)C2C3CCC(C3)C2C1=O)Oc1ccc2ccccc2c1` (stereo unspecified) here?
Its IC50 is > 100 µM (active).

Which IC50 (Prothrombin) does the source give for `Cc1ccnc(NC(=O)c2ccc([N+](=O)[O-])o2)c1` here?
The IC50 was > 50 µM (not active).

Which results are given for `O=C(O)c1cc(Nc2cc(Cl)c3nonc3c2[N+](=O)[O-])ccc1O`?
EC50 (Protein RecA): 1.33 µM (active); IC50 (Genome polyprotein): 8.55 µM (active); IC50 (Large T antigen): 40.4 µM (active); AC50 [7]: 1.17 µM (active); AC50 (Caspase-6): 14.6 µM (active)
